Where a SMILES comes first, the peptide text is derived from it.
Legend:
[1] = test system: mouse EMS lesion cells; format: cell-based
Protocol: (§1) Peptides inhibiting β-catenin cause decreased cell viability in a colon cancer cell line (SW480) and endometriosis lesions excised from a disease animal model. Peptides from libraries described herein are characterized in their effect on cell viability, as measured using a luminescent cell viability assay (Cell Titer-Glo®, Promega, Madison, WI) and expressed as IC50 in Table 5. Peptide inhibitors were tested for their ability to inhibit cellular proliferation across 2 different β-catenin expressing pathogenic cell lines: a colon cancer cell line (SW480) and/or mouse EMS lesion cells derived from mouse model of disease. Both cells lines are naturally known to express high levels of β-catenin. Cell lines were incubated with varying concentrations of peptide concentration and assessed for viability after day 5 and 7 days. The CellTiter-Glo® Luminescent Cell Viability Assay (Promega) is used to detect viable cells. IC50 values are graphed and calculated using Prism software (GraphPad) based on the cell viability readouts. IC50 is used to assess inhibition of cell proliferation by peptide concentration and is used to calculate the inhibitory effect of each peptide across each line. The results are used to assess the therapeutic potency of the peptides. In the SW480 cell line, peptide inhibitors from Family 1 (SEQ ID NO:264) and Family 2 (SEQ ID NO:396) were added daily to the cell growth medium. After 7 days, cell viability was assessed with the Cell-Titer Glo kit (Promega, Madison, WI). […] IC50 was calculated for peptides based on the concentration at which 50% viability was observed (Table 5).

[2] = test system: colon cancer cell line (SW480); format: cell-based
Protocol: as §1

[3] = biological target: T1, β-catenin (Homo sapiens, UniProt P35222); experiment: KD50 measurement using competitive fluorescence polarization (FP) with labelled TCF4; format: binding; settings: fluorescence polarization, β-catenin; for Kd: read-out: β-Cat FP KD
T1 sequence (P35222 1-781): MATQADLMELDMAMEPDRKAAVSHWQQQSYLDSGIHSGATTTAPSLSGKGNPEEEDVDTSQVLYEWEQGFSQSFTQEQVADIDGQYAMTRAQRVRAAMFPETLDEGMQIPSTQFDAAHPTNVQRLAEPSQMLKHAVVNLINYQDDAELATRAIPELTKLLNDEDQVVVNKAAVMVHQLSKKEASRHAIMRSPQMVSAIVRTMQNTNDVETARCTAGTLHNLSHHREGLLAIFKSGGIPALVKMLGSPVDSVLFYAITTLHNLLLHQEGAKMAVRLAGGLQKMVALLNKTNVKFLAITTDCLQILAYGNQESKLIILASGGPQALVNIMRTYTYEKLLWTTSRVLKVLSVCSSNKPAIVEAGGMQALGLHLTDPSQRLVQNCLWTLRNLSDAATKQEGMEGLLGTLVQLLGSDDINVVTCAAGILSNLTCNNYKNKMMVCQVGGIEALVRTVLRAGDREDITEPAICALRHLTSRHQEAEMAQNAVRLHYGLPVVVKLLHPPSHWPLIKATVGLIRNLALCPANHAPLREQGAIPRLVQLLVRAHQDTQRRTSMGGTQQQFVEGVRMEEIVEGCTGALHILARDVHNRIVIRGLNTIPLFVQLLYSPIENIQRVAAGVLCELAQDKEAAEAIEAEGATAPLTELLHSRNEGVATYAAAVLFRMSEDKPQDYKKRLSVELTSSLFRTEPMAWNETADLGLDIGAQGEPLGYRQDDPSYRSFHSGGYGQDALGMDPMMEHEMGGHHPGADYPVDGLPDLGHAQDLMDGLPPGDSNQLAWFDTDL
In short: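 Competitive FP in which unlabelled inhibitor (10 nM to 30 uM dilution series) displaces 5 nM labelled TCF4 from 100 nM β-catenin, room temperature. Read-out ex 470 nm, em 520 nm; experiment repeated three times.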

[4] = % Viability non-Wnt responsive cells
[5] = biological target: Wnt-responsive promoter (TCF/LEF); experiment: Wnt-dependent luciferase reporter assay; format: cell-based, murine
In short: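 EC50 (uM) derived from inhibition of luminescence in Wnt3a-stimulated murine 3T3 cells expressing luciferase under a TCF/LEF promoter, with peptides added across a concentration range and vehicle as control.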

Molecule	IC50 [2] [µM]	IC50 [1] [µM]	β-Cat FP Hill slope [3]	Kd [3] [µM]	EC50 [5] [µM]	Cell growth / viability ([1]; mouse EMS lesion cells, peptide added daily 0.024-25 uM, 5 days)	viability [4] [%]
Lauroyl-NH-W-NMeA-QK*ILDE*H-Chg-E*DVWK*-NH2 (WAQKILDEHGEDVWK; HELM PEPTIDE1{[CCCCCCCCCCCC(=O)[*:2]].W.[meA].Q.K.I.L.D.E.H.[O=C([C@@H](N[*:1])C1CCCCC1)[*:2]].E.D.V.W.K.[am]}$PEPTIDE1,PEPTIDE1,12:R3-16:R3|PEPTIDE1,PEPTIDE1,5:R3-9:R3$$$V2.0; SMILES CCCCCCCCCCCC(=O)N[C@@H](Cc1c[nH]c2ccccc12)C(=O)N(C)[C@@H](C)C(=O)N[C@@H](CCC(N)=O)C(=O)N[C@H]1CCCCNC(=O)CC[C@@H](C(=O)N[C@@H](Cc2c[nH]cn2)C(=O)N[C@H](C(=O)N[C@H]2CCC(=O)NCCCC[C@@H](C(N)=O)NC(=O)[C@H](Cc3c[nH]c4ccccc34)NC(=O)[C@H](C(C)C)NC(=O)[C@H](CC(=O)O)NC2=O)C2CCCCC2)NC(=O)[C@H](CC(=O)O)NC(=O)[C@H](CC(C)C)NC(=O)[C@H]([C@@H](C)CC)NC1=O; listed as Homo sapiens) [SEQ ID NO: 465]						inhibited cell growth	
CCCCCCCCCCCC(=O)N[C@@H](Cc1c[nH]c2ccccc12)C(=O)N(C)[C@@H](C)C(=O)N[C@@H](CCC(N)=O)C(=O)N[C@H]1CCCCNC(=O)C[C@@H](C(=O)N[C@@H](Cc2c[nH]cn2)C(=O)N[C@H](C(=O)N[C@@H](CCC(N)=O)C(=O)N[C@@H](CCCNC(=N)N)C(=O)N[C@H](C(=O)N[C@@H](Cc2c[nH]c3ccccc23)C(=O)NCC(N)=O)C(C)C)C2CCCCC2)NC(=O)[C@H](CC(=O)O)NC(=O)[C@H](CC(C)C)NC(=O)[C@H]([C@@H](C)CC)NC1=O [compound 432] (HELM PEPTIDE1{[CCCCCCCCCCCC(=O)[*:2]].W.[meA].Q.K.I.L.D.D.H.[O=C([C@@H](N[*:1])C1CCCCC1)[*:2]].Q.R.V.W.G.[am]}$PEPTIDE1,PEPTIDE1,5:R3-9:R3$$$V2.0)	14.9	0.8		< 0.4			

Further lines, with some results ahead:

IC50 [2] [µM]	IC50 [1] [µM]	β-Cat FP Hill slope [3]	Kd [3] [µM]	EC50 [5] [µM]	Molecule	Cell growth / viability ([1]; mouse EMS lesion cells, peptide added daily 0.024-25 uM, 5 days)	viability [4] [%]
5	26.3	3	0.4 to 1		CC[C@@H]1NC(=O)[C@H]([C@@H](C)CC)NC(=O)[C@H](CC(C)C)NC(=O)[C@H](C2CCCCC2)NC(=O)[C@H](Cc2c[nH]c3ccccc23)NC(=O)[C@@H](NC(C)=O)CCCCNC(=O)C[C@@H](C(=O)O)NC(=O)[C@H](Cc2c[nH]c3ccccc23)NC(=O)[C@H](C)NC1=O [compound 262] (HELM PEPTIDE1{[ac].K.W.[O=C([C@@H](N[*:1])C1CCCCC1)[*:2]].L.I.[Abu].A.W.D}$PEPTIDE1,PEPTIDE1,2:R3-10:R3$$$V2.0)		
	> 30	1.69		> 30	CCCC[C@@H]1NC(=O)[C@@H](NC(C)=O)CCCCNC(=O)C[C@@H](C(=O)O)NC(=O)[C@H](Cc2c[nH]c3ccccc23)NC(=O)[C@H](C)NC(=O)[C@H](CC)NC(=O)[C@H]([C@@H](C)CC)NC(=O)[C@H](CC(C)C)NC(=O)[C@H](CC2CCCCC2)NC(=O)[C@H](Cc2c[nH]c3ccccc23)NC1=O [compound 215] (HELM PEPTIDE1{[ac].K.[Nle].W.[Cha].L.I.[Abu].A.W.D}$PEPTIDE1,PEPTIDE1,2:R3-11:R3$$$V2.0)		106
26.8		0.7	< 0.4	15 to 22.5	CC[C@H](C)[C@@H]1NC(=O)[C@@H](NC(=O)[C@H](CCC(N)=O)NC(=O)[C@H](C)N(C)C(=O)[C@H](Cc2c[nH]c3ccccc23)NC(=O)CCC(=O)O)CCCCNC(=O)CC[C@@H](C(=O)N[C@@H](Cc2c[nH]cn2)C(=O)N[C@H](C(=O)N[C@@H](CCC(N)=O)C(=O)N[C@@H](CCCNC(=N)N)C(=O)N[C@H](C(=O)N[C@@H](Cc2c[nH]c3ccccc23)C(=O)NCC(N)=O)C(C)C)C2CCCCC2)NC(=O)[C@H](CC(=O)O)NC(=O)[C@H](CC(C)C)NC1=O [compound 405] (HELM PEPTIDE1{[O=C(O)CCC(=O)[*:2]].W.[meA].Q.K.I.L.D.E.H.[O=C([C@@H](N[*:1])C1CCCCC1)[*:2]].Q.R.V.W.G.[am]}$PEPTIDE1,PEPTIDE1,5:R3-9:R3$$$V2.0)		

Reference: patent US12441768B2, “Compositions and methods for treating endometriosis” (EndoMet Biosciences, Inc., priority 2018, dated 2025)
